Source: PubChem BioAssay AID264 (DTP/NCI, 2004)
Values joined by “and” are separate entries in the source; they are usually repeats but may differ in a detail not shown here. Equal values may be shown once. Results filed as inconclusive are left out.

Tested on: nude mice, LX-1 lung xenograft intrarenal, tumor weight T/C
Test: NCI In Vivo Anticancer Drug Screen. Data for tumor model Human Lung LX-1 Xenograft (intrarenal inoculation) in NU/NU Swiss (nude) mice
Details: endpoint: mean tumor weight change, higher = larger tumour
Protocol: The antitumor activity of compounds was measured in mice bearing transplantable tumors. Survival or tumor size were measured and the results are expressed as the measurement made in the treated group (T) divided by the measurement made in the vehicle treated control group (C). The tumor model used in this assay is Human Lung LX-1 Xenograft (intrarenal inoculation) in NU/NU Swiss (nude) mice

[1] = dose: 300.0 mg/kg/injection, schedule: Q04DX003 (sc), vehicle: Klucel (hydroxypropylcellulose) (HPC)
[2] = dose: 600.0 mg/kg/injection, schedule: Q04DX003 (sc), vehicle: Klucel (hydroxypropylcellulose) (HPC)
[3] = dose: 1200.0 mg/kg/injection, schedule: Q04DX003 (sc), vehicle: Klucel (hydroxypropylcellulose) (HPC)
[4] = dose: 2400.0 mg/kg/injection, schedule: Q04DX003 (sc), vehicle: Klucel (hydroxypropylcellulose) (HPC)
[5] = dose: 100.0 mg/kg/injection, schedule: Q04DX003 (sc), vehicle: saline with Tween-80
[6] = dose: 200.0 mg/kg/injection, schedule: Q04DX003 (sc), vehicle: saline with Tween-80
[7] = dose: 100.0 mg/kg/injection, schedule: Q01DX010 (sc), vehicle: saline
[8] = dose: 300.0 mg/kg/injection, schedule: Q04DX003 (sc), vehicle: saline
[9] = dose: 600.0 mg/kg/injection, schedule: Q04DX003 (sc), vehicle: saline
[10] = dose: 1200.0 mg/kg/injection, schedule: Q04DX003 (sc), vehicle: saline
[11] = dose: 25.0 mg/kg/injection, schedule: Q01DX010 (sc), vehicle: Klucel (hydroxypropylcellulose) (HPC)
[12] = dose: 150.0 mg/kg/injection, schedule: Q04DX003 (sc), vehicle: saline with Tween-80
[13] = dose: 300.0 mg/kg/injection, schedule: Q04DX003 (sc), vehicle: saline with Tween-80
[14] = dose: 600.0 mg/kg/injection, schedule: Q04DX003 (sc), vehicle: saline with Tween-80
[15] = dose: 1200.0 mg/kg/injection, schedule: Q04DX003 (sc), vehicle: saline with Tween-80
[16] = dose: 25.0 mg/kg/injection, schedule: Q04DX003 (sc), vehicle: saline with Tween-80
[17] = dose: 50.0 mg/kg/injection, schedule: Q04DX003 (sc), vehicle: saline with Tween-80
[18] = dose: 200.0 mg/kg/injection, schedule: Q04DX003 (sc), vehicle: Klucel (hydroxypropylcellulose) (HPC)

Nc1nc(=O)n(C2OC(CO)C(O)C2O)cc1F (stereo not drawn)
T/C (dose: 150.0 mg/kg/injection, schedule: Q04DX003 (sc), vehicle: Klucel (hydroxypropylcellulose) (HPC)): 74 % of control | T/C [1]: 68 % of control | T/C [2]: 84 % of control | T/C [3]: 48 % of control

CC12CC(C(=O)O)C3(O)CC(C)(C1)CC(C)(C2)C3 (stereo not drawn) (tested in a mixture with another compound)
T/C [1]: 86 % of control | T/C [2]: 57 % of control | T/C [3]: 105 % of control | T/C [4]: 105 % of control

Nc1nc2ccc(NCc3ccc(C(=O)NC(CCC(=O)O)C(=O)O)cc3)cc2c(=O)[nH]1 (stereo not drawn)
T/C [5]: 94 % of control | T/C [6]: 83 % of control | T/C (dose: 400.0 mg/kg/injection, schedule: Q04DX003 (sc), vehicle: saline with Tween-80): 109 % of control | T/C (dose: 800.0 mg/kg/injection, schedule: Q04DX003 (sc), vehicle: saline with Tween-80): 63 % of control

CC(=O)C1=C(O)C2(O)C(=O)c3c(c(C)c4ccc(C)c(O)c4c3O)CC2C(N)C1=O (stereo not drawn)
T/C (dose: 50.0 mg/kg/injection, schedule: Q04DX003 (sc), vehicle: saline): 107 % of control | T/C (dose: 100.0 mg/kg/injection, schedule: Q04DX003 (sc), vehicle: saline): 110 % of control | T/C (dose: 200.0 mg/kg/injection, schedule: Q04DX003 (sc), vehicle: saline): 61 % of control | T/C (dose: 400.0 mg/kg/injection, schedule: Q04DX003 (sc), vehicle: saline): 51 % of control

COc1cc(C(=O)c2cocc2C(=O)c2ccc3c(c2)OCO3)cc(OC)c1OC
T/C [1]: 160 % of control | T/C [2]: 80 % of control | T/C [3]: 94 % of control

C(CC1CO1)C1CO1 (stereo not drawn)
T/C (dose: 25.0 mg/kg/injection, schedule: Q01DX010 (sc), vehicle: saline): 104 % of control | T/C (dose: 50.0 mg/kg/injection, schedule: Q01DX010 (sc), vehicle: saline): 64 % of control | T/C [7]: 42 % of control

C=C(C)[C@@H]1CCc2c(O)c(O)c(=O)cc(C)c2C1
T/C [8]: 106 % of control | T/C [9]: 62 % of control | T/C [10]: 90 % of control | T/C (dose: 2400.0 mg/kg/injection, schedule: Q04DX003 (sc), vehicle: saline): 85 % of control

CNC(=O)c1cccc2c(Nc3ccc(NS(C)(=O)=O)cc3OC)c3cccc(C)c3nc12
T/C (dose: 50.0 mg/kg/injection, schedule: Q04DX003 (sc), vehicle: water): 69 % of control

NCCCC(N)(C(=O)O)C(F)F (stereo not drawn)
T/C (dose: 300.0 mg/kg/injection, schedule: Q04DX003 (sc), vehicle: distilled water + alcohol): 101 % of control | T/C (dose: 600.0 mg/kg/injection, schedule: Q04DX003 (sc), vehicle: distilled water + alcohol): 87 % of control | T/C (dose: 1200.0 mg/kg/injection, schedule: Q04DX003 (sc), vehicle: distilled water + alcohol): 82 % of control | T/C (dose: 2400.0 mg/kg/injection, schedule: Q04DX003 (sc), vehicle: distilled water + alcohol): 92 % of control

C1CCC2[N-]CC3CCCCC3[N-]CC3CCCCC3[N-]CC3CCCCC3[N-]CC2C1.[Cu] (stereo not drawn)
T/C (dose: 6.25 mg/kg/injection, schedule: Q01DX010 (sc), vehicle: Klucel (hydroxypropylcellulose) (HPC)): 100 % of control | T/C (dose: 12.5 mg/kg/injection, schedule: Q01DX010 (sc), vehicle: Klucel (hydroxypropylcellulose) (HPC)): 87 % of control | T/C [11]: 51 % of control

Nc1cccc(=O)[nH]1
T/C [8]: 100 % of control | T/C [9]: 110 % of control | T/C [10]: 105 % of control

CN1CCN(c2ccc([N+](=O)[O-])c3no[n+]([O-])c23)CC1
T/C [12]: 73 % of control

C[C@]12C=CC(=O)C=C1CC[C@@H]1[C@@H]2C(=O)C[C@@]2(C)[C@H]1CC[C@]2(O)C(=O)CO
T/C [1]: 50 % of control | T/C [2]: 56 % of control | T/C [3]: 47 % of control | T/C [4]: 35 % of control

Cc1ccc2c(c1)C(=O)N(CC[P+](c1ccccc1)(c1ccccc1)c1ccccc1)C2=O
T/C [11]: 51 % of control | T/C (dose: 50.0 mg/kg/injection, schedule: Q01DX010 (sc), vehicle: Klucel (hydroxypropylcellulose) (HPC)): 37 % of control

CC(=O)ON(C(C)=O)c1ccc(C(N)=O)cc1
T/C [12]: 110 % of control | T/C [13]: 114 % of control | T/C [14]: 100 % of control | T/C [15]: 97 % of control

Nc1cc(Cl)c2[nH]cnc2n1
T/C (dose: 200.0 mg/kg/injection, schedule: Q04DX003 (sc), vehicle: water): 121 % of control | T/C (dose: 400.0 mg/kg/injection, schedule: Q04DX003 (sc), vehicle: water): 94 % of control

C[n+]1ccc2cc(N)c3c4ccccc4sc3c2c1
T/C (dose: 6.25 mg/kg/injection, schedule: Q04DX003 (sc), vehicle: saline with Tween-80): 67 % of control | T/C (dose: 12.5 mg/kg/injection, schedule: Q04DX003 (sc), vehicle: saline with Tween-80): 93 % of control | T/C [16]: 70 % of control | T/C [17]: 74 % of control

F[B-](F)(F)F
T/C (dose: 300.0 mg/kg/injection, schedule: Q04DX003 (sc), vehicle: gum acacia): 103 % of control | T/C (dose: 600.0 mg/kg/injection, schedule: Q04DX003 (sc), vehicle: gum acacia): 101 % of control | T/C (dose: 1200.0 mg/kg/injection, schedule: Q04DX003 (sc), vehicle: gum acacia): 84 % of control

C(COCCOCC1CO1)OCCOCC1CO1 (stereo not drawn)
T/C [7]: 108 % of control | T/C (dose: 200.0 mg/kg/injection, schedule: Q01DX010 (sc), vehicle: saline): 93 % of control | T/C (dose: 400.0 mg/kg/injection, schedule: Q01DX010 (sc), vehicle: saline): 46 % of control

O=Cc1ccccc1
T/C (dose: 100.0 mg/kg/injection, schedule: Q04DX003 (sc), vehicle: Klucel (hydroxypropylcellulose) (HPC)): 64 % of control | T/C [18]: 75 % of control | T/C (dose: 400.0 mg/kg/injection, schedule: Q04DX003 (sc), vehicle: Klucel (hydroxypropylcellulose) (HPC)): 73 % of control | T/C (dose: 800.0 mg/kg/injection, schedule: Q04DX003 (sc), vehicle: Klucel (hydroxypropylcellulose) (HPC)): 112 % of control

COc1cccc2c1C(=O)c1c(O)c3c(c(O)c1C2=O)C[C@@](O)(C(=O)CO)C[C@@H]3OC1CC(N)C(OC)C(C)O1 (stereo partly drawn)
T/C (dose: 0.75 mg/kg/injection, schedule: Q01DX010 (sc), vehicle: saline): 29 % of control | T/C (dose: 3.0 mg/kg/injection, schedule: Q01DX010 (sc), vehicle: saline): 14 % of control

O=P1(NCCCl)OCCCN1CCCl (stereo not drawn)
T/C (dose: 75.0 mg/kg/injection, schedule: Q04DX003 (sc), vehicle: saline): 93 % of control | T/C (dose: 150.0 mg/kg/injection, schedule: Q04DX003 (sc), vehicle: saline): 109 % of control

COCC1OC2OC3C(COC)OC(OC4C(COC)OC(OC5C(COC)OC(OC6C(COC)OC(OC7C(COC)OC(OC8C(COC)OC(OC1C(O)C2O)C(O)C8O)C(O)C7O)C(O)C6O)C(O)C5O)C(O)C4O)C(O)C3O (stereo not drawn) (tested in a mixture with another compound)
T/C [18]: 156 % of control

COc1cc2cc(c1Cl)N(C)C(=O)CC(OC(=O)C(C)C)C1(C)OC1C(C)C1CC(O)(NC(=O)O1)C(OC)/C=C/C=C(C)C2 (stereo not drawn)
T/C (dose: 100.0 micrograms/kg/injection, schedule: Q01DX010 (sc), vehicle: saline + alcohol): 19 % of control and 39 % of control | T/C (dose: 200.0 micrograms/kg/injection, schedule: Q01DX010 (sc), vehicle: saline + alcohol): 44 % of control

C/C=C/c1cc2c(c(=O)o1)C(=O)[C@@H](O)[C@H](C)O2
T/C [16]: 92 % of control | T/C [17]: 95 % of control | T/C [5]: 75 % of control and 97 % of control | T/C [6]: 82 % of control and 87 % of control

CCCN1COC(OCC)C(C)(C)C1 (stereo not drawn)
T/C [12]: 92 % of control | T/C [13]: 90 % of control | T/C [14]: 106 % of control | T/C [15]: 107 % of control

C1OC1CO[C@@H]1CO[C@H]2[C@@H]1OC[C@H]2OCC1CO1 (stereo partly drawn)
T/C (dose: 50.0 mg/kg/injection, schedule: Q01DX010 (sc), vehicle: saline with Tween-80): 95 % of control | T/C (dose: 100.0 mg/kg/injection, schedule: Q01DX010 (sc), vehicle: saline with Tween-80): 80 % of control | T/C (dose: 200.0 mg/kg/injection, schedule: Q01DX010 (sc), vehicle: saline with Tween-80): 65 % of control

COc1cccc2c1C(=O)c1c(O)c3c(c(O)c1C2=O)C[C@@](O)(C(C)=O)C[C@@H]3OC1CC(N(Cc2ccccc2)Cc2ccccc2)C(O)C(C)O1 (stereo partly drawn)
T/C (dose: 25.0 mg/kg/injection, schedule: Q01DX010 (sc), vehicle: water): 64 % of control
